Results taken from PubChem BioAssay (NCI).
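The compound was tested at five concentrations on cells cultured in 96-well plates, with a 48-hour exposure period. GI50: concentration for 50% inhibition of growth. The concentration for full growth arrest is given as TGI.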

Columns and labels:
Assay in all cases: NCI anticancer screen, dose series, 48 h
RPMI-8226 leukemia = system: RPMI-8226 leukemia
OVCAR-3 ovarian = system: OVCAR-3 ovarian
HCC-2998 colon = system: HCC-2998 colon
MDA-MB-435 = system: MDA-MB-435
BT-549 breast = system: BT-549 breast
UACC-257 melanoma = system: UACC-257 melanoma
SW-620 colon = system: SW-620 colon
K-562 leukemia = system: K-562 leukemia
HT29 colon = system: HT29 colon
M14 melanoma = system: M14 melanoma

Row | SMILES | GI50 (RPMI-8226 leukemia) | TGI (RPMI-8226 leukemia) | GI50 (OVCAR-3 ovarian) | TGI (OVCAR-3 ovarian) | GI50 (HCC-2998 colon) | TGI (HCC-2998 colon) | GI50 (MDA-MB-435) | TGI (MDA-MB-435) | GI50 (BT-549 breast) | TGI (BT-549 breast) | GI50 (UACC-257 melanoma) | TGI (UACC-257 melanoma) | GI50 (SW-620 colon) | TGI (SW-620 colon) | GI50 (K-562 leukemia) | TGI (K-562 leukemia) | GI50 (HT29 colon) | TGI (HT29 colon) | GI50 (M14 melanoma) | TGI (M14 melanoma)
1 | COc1ccc2c(CN3CCCC[C@H]3O)cc3cc4c(cc3c2c1)OCO4 | 0.298 µM | 1.32 µM | 0.409 µM | 3.4 µM | 0.337 µM | 1.48 µM | 0.422 µM | 1.62 µM | 1.21 µM | 4.5 µM | 0.237 µM | 0.737 µM | 0.31 µM | 4.65 µM | 0.364 µM | 4.35 µM | 0.274 µM | 1.93 µM | 0.319 µM | 1.15 µM
2 | O=C(OCC1=CC(=O)c2ccccc2C1=O)c1ccccc1 | 21.3 µM | > 100 µM | 3.47 µM | 18.7 µM | 6.14 µM | 18.8 µM | 1.98 µM | 3.66 µM | 13.8 µM | 27 µM | 3.13 µM | 9.47 µM | 4.89 µM | 17.5 µM | 9.47 µM | 34.5 µM | 8.13 µM | 37.7 µM | 1.72 µM | 3.59 µM
3 | CCOC(=O)c1sc(NC(=O)COc2ccc(/C=C3\CCc4cc(OC)ccc4C3=O)cc2)nc1C | 0.684 µM | 6.64 µM | 11 µM | 25.8 µM | 1.47 µM | 4.38 µM | 4.05 µM | 18.3 µM | 1.4 µM | 17.7 µM | 11.5 µM | 25 µM | 11.4 µM | 23.5 µM | 3.71 µM | > 40.3 µM | 13.7 µM | 28.6 µM | 13.3 µM | 26.2 µM
4 | Cc1nc(C(=O)OCc2ccccc2)cc(OCc2ccccc2)c1C | 20.9 µM | > 72.7 µM | 11.4 µM | 26.2 µM | 20.5 µM | 54.1 µM | 18.5 µM | > 54.6 µM | 17.9 µM | 34.2 µM | 18.8 µM | 38.3 µM | 17.8 µM | 44.2 µM | 8.8 µM | 36.8 µM | 13.1 µM | 29.3 µM | 19.8 µM | 40.3 µM
5 | CC(C)(O)c1cc(Nc2cc(Oc3cn(C4CC4)nc3C3CCOCC3)ccn2)ccn1 | 33.7 µM | > 100 µM | 98.1 µM | > 100 µM | > 100 µM | > 100 µM | > 100 µM | > 100 µM | 56.7 µM | > 100 µM | 85.1 µM | > 100 µM | > 100 µM | > 100 µM | 27.5 µM | > 100 µM | 68 µM | > 100 µM | 89.1 µM | > 100 µM
6 | O=C1C=C(NCCc2ccccc2)c2ccccc2C1=O |  | 67.5 µM |  | 5.59 µM |  | 4.09 µM |  | 2.34 µM |  | 3.77 µM |  | 2.93 µM |  | 4.31 µM |  | 20.4 µM |  | 7.27 µM |  | 2.99 µM
7 | CN(C)CCN=c1nc2c(c(N)n1-c1ccccc1)c(=S)n(-c1ccccc1)c(=S)n2-c1ccccc1 | 0.587 µM |  | 2.89 µM | 11.6 µM | 2.05 µM | 5.33 µM | 1.75 µM | 3.9 µM | 3.21 µM | 13.3 µM | 1.91 µM | 3.75 µM | 1.93 µM | 4.87 µM | 3.6 µM |  | 1.48 µM | 3.82 µM | 1.69 µM | 3.81 µM
8 | Cn1cc(-c2csc(-c3ccc(Cl)cc3)n2)c2cccnc21 | 12.3 µM | 78.6 µM | 17.1 µM | 35.6 µM | 14.6 µM | 28.8 µM | 12.8 µM | 33.6 µM | 18.6 µM | 51.9 µM | 19.9 µM | 43.5 µM | 15 µM | 29.3 µM | 12.9 µM | 38.3 µM | 13.2 µM | 25.9 µM | 12 µM | 24.8 µM
9 | OC(Cc1cccc2ccccc12)CN1CCC(c2ccccc2)CC1 (stereo not drawn) |  | 31.8 µM |  | 30.5 µM |  | 10.8 µM |  | 28.3 µM |  | 31.3 µM |  | 18.8 µM |  | 29.9 µM |  | 38.1 µM |  | 25.8 µM |  | 28.7 µM
10 | Cc1cc(C)c(-c2c(O)c(Br)c(-c3c(C)cc(C)c(Br)c3C)c(O)c2Br)c(C)c1Br | 2.08 µM | 11.9 µM | 2.33 µM | 10.8 µM | 2.67 µM | 7.31 µM | 2.35 µM | 8.55 µM | 2.25 µM | 10.5 µM | 2.52 µM | 12.2 µM | 2.94 µM | 12 µM | 2.65 µM | 13.9 µM | 2.34 µM | 10.2 µM | 1.97 µM | 4.71 µM
